Values of other authors as cited in US12565499B2, “Compounds and methods” (INTRA-CELLULAR THERAPIES, INC., priority 2012, dated 2026).

Tested on: mice
Details: chronic administration; Berton et al., Science (2006) 311:864-868

In the case of `CNCCC(Oc1ccc(C(F)(F)F)cc1)c1ccccc1` (stereo not shown) [fluoxetine], the “reversal of isolation behavior in the social defeat/resident intruder model” value is listed as “reversed”.
